Experimental data taken from patent publication US20220089568A1 (Janssen Biotech, Inc., priority 2019, published 2022).
pEC50: −log10 of the molar value.

Legend:
MOLM-13 cells = assay: MOLM-13 Cellular Assay; assay type: cell-based; conditions: Homo sapiens, 72 hours exposure, cell viability by CellTiter-Glo
Description: The day prior to assay set-up, cells were pelleted, resuspended in fresh media, counted, and cells were plated at 0.4×10^6 cell/mL in a T150 flask. […] Cells were exposed to different concentrations of test compounds at 37° C., 5% CO2 for 72 hours immediately after seeding.

human DHODH = target: T1, human DHODH (Homo sapiens, UniProt Q02127); assay: DHODH Enzymatic Assay; assay type: biochemical; conditions: purified human DHODH; DCIP absorbance, end-point mode
T1 construct: purchased Proteros PR-0044
T1 sequence (Q02127 whole entry): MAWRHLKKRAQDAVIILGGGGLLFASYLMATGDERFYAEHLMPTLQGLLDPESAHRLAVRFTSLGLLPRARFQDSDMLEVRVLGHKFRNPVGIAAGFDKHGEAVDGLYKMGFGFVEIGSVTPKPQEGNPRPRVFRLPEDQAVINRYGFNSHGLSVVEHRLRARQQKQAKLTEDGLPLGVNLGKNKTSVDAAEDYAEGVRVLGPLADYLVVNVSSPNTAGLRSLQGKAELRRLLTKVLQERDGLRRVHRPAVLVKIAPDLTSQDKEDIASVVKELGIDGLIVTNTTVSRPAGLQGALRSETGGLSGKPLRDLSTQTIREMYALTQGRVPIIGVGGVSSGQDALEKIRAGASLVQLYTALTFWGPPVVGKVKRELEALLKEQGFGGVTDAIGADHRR
In short: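 Purified human DHODH activity read as absorbance of DCIP, the terminal electron acceptor, in […] pH 7.5, 150 mM NaCl, 0.5 mM EDTA, 0.1% Triton X-100. Reaction started with a substrate mix of 20 mM DHO, 5 mM CoQ6 and 1 mM DCIP in assay buffer.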

SMILES | pEC50 (MOLM-13 cells) | pEC50 (human DHODH)
CCn1c(CO)nn(-c2nc(O[C@@H](C)C(F)(F)F)c(C(=O)Nc3ccnnc3OC)cc2F)c1=O [Example 109, 6-[4-Ethyl-3-(hydroxymethyl)-5-oxo-1,2,4-triazol-1-yl]-5-fluoro-N-(3-methoxypyridazin-4-yl)-2-[(1S)-2,2,2-trifluoro-1-methyl-ethoxy]pyridine-3-carboxamide] | < 7.00 | < 7.00
CCn1c(CO)nn(-c2nc(O[C@@H](C)C(F)(F)F)c(C(=O)Nc3c(C)cc(Cl)nc3OC)cc2F)c1=O [Example 113, N-(6-Chloro-2-methoxy-4-methyl-3-pyridyl)-6-[4-ethyl-3-(hydroxymethyl)-5-oxo-1,2,4-triazol-1-yl]-5-fluoro-2-[(1S)-2,2,2-trifluoro-1-methyl-ethoxy]pyridine-3-carboxamide] | 9.38 | 8.97
Cc1n[nH]c(Cl)c1NC(=O)c1cc(F)c(-n2nc(CF)n(CCO)c2=O)nc1O[C@@H](C)C(F)(F)F [Example 115, N-(5-Chloro-3-methyl-1H-pyrazol-4-yl)-5-fluoro-6-[3-(fluoromethyl)-4-(2-hydroxyethyl)-5-oxo-1,2,4-triazol-1-yl]-2-[(1S)-2,2,2-trifluoro-1-methyl-ethoxy]pyridine-3-carboxamide] | 8.90 | 8.39
Cc1ccnc(Cl)c1NC(=O)c1cc(F)c(-n2nc(CF)n(CCO)c2=O)nc1O[C@@H](C)C(F)(F)F [Example 116, N-(2-Chloro-4-methyl-3-pyridyl)-5-fluoro-6-[3-(fluoromethyl)-4-(2-hydroxyethyl)-5-oxo-1,2,4-triazol-1-yl]-2-[(1S)-2,2,2-trifluoro-1-methyl-ethoxy]pyridine-3-carboxamide] | 8.14 | 7.69
CCn1c(CO)nn(-c2nc(O[C@@H](C)C(F)(F)F)c(C(=O)Nc3c(F)cnc(OC)c3C#N)cc2F)c1=O [Example 117, N-(3-Cyano-5-fluoro-2-methoxy-4-pyridyl)-6-[4-ethyl-3-(hydroxymethyl)-5-oxo-1,2,4-triazol-1-yl]-5-fluoro-2-[(1S)-2,2,2-trifluoro-1-methyl-ethoxy]pyridine-3-carboxamide] | 7.81 | 8.99
CCn1c(CO)nn(-c2nc(O[C@@H](C)C(F)(F)F)c(C(=O)Nc3ncc(OC)cc3Cl)cc2F)c1=O [Example 118, N-(3-Chloro-5-methoxy-2-pyridyl)-6-[4-ethyl-3-(hydroxymethyl)-5-oxo-1,2,4-triazol-1-yl]-5-fluoro-2-[(1S)-2,2,2-trifluoro-1-methyl-ethoxy]pyridine-3-carboxamide] | 8.20 | 8.33
CCn1c(CO)nn(-c2nc(O[C@@H](C)C(F)(F)F)c(C(=O)Nc3c(OC)cccc3OC)cc2F)c1=O [Example 119, N-(2,6-Dimethoxyphenyl)-6-[4-ethyl-3-(hydroxymethyl)-5-oxo-1,2,4-triazol-1-yl]-5-fluoro-2-[(1S)-2,2,2-trifluoro-1-methyl-ethoxy]pyridine-3-carboxamide] | 8.83 | 8.65
CCn1c(CO)nn(-c2nc(O[C@@H](C)C(F)(F)F)c(C(=O)Nc3c(OC)n[nH]c3C)cc2F)c1=O [Example 121, 6-[4-Ethyl-3-(hydroxymethyl)-5-oxo-1,2,4-triazol-1-yl]-5-fluoro-N-(3-methoxy-5-methyl-1H-pyrazol-4-yl)-2-[(1S)-2,2,2-trifluoro-1-methyl-ethoxy]pyridine-3-carboxamide] | 8.61 | 7.64
CCn1c(CO)nn(-c2nc(O[C@@H](C)C(F)(F)F)c(C(=O)Nc3c(OC)cncc3OC)cc2F)c1=O [Example 122, N-(3,5-Dimethoxy-4-pyridyl)-6-[4-ethyl-3-(hydroxymethyl)-5-oxo-1,2,4-triazol-1-yl]-5-fluoro-2-[(1S)-2,2,2-trifluoro-1-methyl-ethoxy]pyridine-3-carboxamide] | 8.04 | < 7.00
CCn1c(CO)nn(-c2nc(O[C@@H](C)C(F)(F)F)c(C(=O)Nc3c(F)ccnc3OC)cc2F)c1=O [Example 125, 6-[4-Ethyl-3-(hydroxymethyl)-5-oxo-1,2,4-triazol-1-yl]-5-fluoro-N-(4-fluoro-2-methoxy-3-pyridyl)-2-[(1S)-2,2,2-trifluoro-1-methyl-ethoxy]pyridine-3-carboxamide] | 8.95 | 8.43
CCn1c(C(C)(C)O)nn(-c2nc(O[C@@H](C)C(F)(F)F)c(C(=O)Nc3c(C)n[nH]c3C(F)(F)F)cc2F)c1=O [Example 128, 6-[4-Ethyl-3-(1-hydroxy-1-methyl-ethyl)-5-oxo-1,2,4-triazol-1-yl]-5-fluoro-N-[3-methyl-5-(trifluoromethyl)-1H-pyrazol-4-yl]-2-[(1S)-2,2,2-trifluoro-1-methyl-ethoxy]pyridine-3-carboxamide] | 8.35 | 8.02

These reach a higher pEC50 (MOLM-13 cells). Values come first.

pEC50 (MOLM-13 cells) | pEC50 (human DHODH) | SMILES
9.55 | 9.44 | CCn1c(CO)nn(-c2nc(O[C@@H](C)C(F)(F)F)c(C(=O)Nc3c(Cl)cnc(OC)c3C)cc2F)c1=O [Example 110, N-(5-Chloro-2-methoxy-3-methyl-4-pyridyl)-6-[4-ethyl-3-(hydroxymethyl)-5-oxo-1,2,4-triazol-1-yl]-5-fluoro-2-[(1S)-2,2,2-trifluoro-1-methyl-ethoxy]pyridine-3-carboxamide]
9.46 | 8.71 | CCn1c(CO)nn(-c2nc(O[C@@H](C)C(F)(F)F)c(C(=O)Nc3c(C)n[nH]c3C(F)(F)F)cc2F)c1=O [Example 111, 6-[4-Ethyl-3-(hydroxymethyl)-5-oxo-1,2,4-triazol-1-yl]-5-fluoro-N-[3-methyl-5-(trifluoromethyl)-1H-pyrazol-4-yl]-2-[(1S)-2,2,2-trifluoro-1-methyl-ethoxy]pyridine-3-carboxamide]
9.52 | 8.39 | CCn1c(CO)nn(-c2nc(O[C@@H](C)C(F)(F)F)c(C(=O)Nc3c(Cl)n[nH]c3C(F)(F)F)cc2F)c1=O [Example 112, N-[3-Chloro-5-(trifluoromethyl)-1H-pyrazol-4-yl]-6-[4-ethyl-3-(hydroxymethyl)-5-oxo-1,2,4-triazol-1-yl]-5-fluoro-2-[(1S)-2,2,2-trifluoro-1-methyl-ethoxy]pyridine-3-carboxamide]
9.43 | 9.38 | CCn1c(CO)nn(-c2nc(O[C@@H](C)C(F)(F)F)c(C(=O)Nc3c(C)cc(C)nc3OC)cc2F)c1=O [Example 114, 6-[4-Ethyl-3-(hydroxymethyl)-5-oxo-1,2,4-triazol-1-yl]-5-fluoro-N-(2-methoxy-4,6-dimethyl-3-pyridyl)-2-[(1S)-2,2,2-trifluoro-1-methyl-ethoxy]pyridine-3-carboxamide]
> 9.77 | 9.61 | CCn1c(CO)nn(-c2nc(O[C@@H](C)C(F)(F)F)c(C(=O)Nc3ccccc3C)cc2F)c1=O [Example 120, 6-[4-Ethyl-3-(hydroxymethyl)-5-oxo-1,2,4-triazol-1-yl]-5-fluoro-N-(o-tolyl)-2-[(1S)-2,2,2-trifluoro-1-methyl-ethoxy]pyridine-3-carboxamide]
9.68 | 8.61 | CCn1c(CO)nn(-c2nc(O[C@@H](C)C(F)(F)F)c(C(=O)Nc3c(Cl)n[nH]c3Cl)cc2F)c1=O [Example 123, N-(3,5-Dichloro-1H-pyrazol-4-yl)-6-[4-ethyl-3-(hydroxymethyl)-5-oxo-1,2,4-triazol-1-yl]-5-fluoro-2-[(1S)-2,2,2-trifluoro-1-methyl-ethoxy]pyridine-3-carboxamide]
9.43 | 8.48 | CCn1c(CO)nn(-c2nc(O[C@@H](C)C(F)(F)F)c(C(=O)Nc3c(C(F)F)n[nH]c3C)cc2F)c1=O [Example 124, N-[3-(Difluoromethyl)-5-methyl-1H-pyrazol-4-yl]-6-[4-ethyl-3-(hydroxymethyl)-5-oxo-1,2,4-triazol-1-yl]-5-fluoro-2-[(1S)-2,2,2-trifluoro-1-methyl-ethoxy]pyridine-3-carboxamide]
9.48 | 9.51 | CCn1c(CO)nn(-c2nc(O[C@@H](C)C(F)(F)F)c(C(=O)Nc3c(Cl)ccnc3OC)cc2F)c1=O [Example 126, N-(4-Chloro-2-methoxy-3-pyridyl)-6-[4-ethyl-3-(hydroxymethyl)-5-oxo-1,2,4-triazol-1-yl]-5-fluoro-2-[(1S)-2,2,2-trifluoro-1-methyl-ethoxy]pyridine-3-carboxamide]
